Experimental data taken from PubChem BioAssay (NCI).
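Five compound concentrations were applied to cells in 96-well plates for 48 hours; endpoints were derived by simple linear interpolation of the resulting dose-response curve. Here, GI50 denotes the concentration required for 50% inhibition of growth. The concentration for full growth arrest is given as TGI.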

Experiments:
Assay in all cases: NCI anticancer screen, dose series, 48 h
HS 578T breast = test system: HS 578T breast
COLO 205 colon = test system: COLO 205 colon
MCF7 breast = test system: MCF7 breast
A498 renal = test system: A498 renal
SK-MEL-5 melanoma = test system: SK-MEL-5 melanoma
PC-3 prostate = test system: PC-3 prostate
HCC-2998 colon = test system: HCC-2998 colon
M14 melanoma = test system: M14 melanoma
NCI-H522 lung = test system: NCI-H522 lung
EKVX NSCLC = test system: EKVX NSCLC
HL-60(TB) leukemia = test system: HL-60(TB) leukemia
SF-539 CNS = test system: SF-539 CNS
HCT-15 colon = test system: HCT-15 colon
UACC-257 melanoma = test system: UACC-257 melanoma
SNB-75 CNS = test system: SNB-75 CNS
786-0 renal = test system: 786-0 renal
OVCAR-5 ovarian = test system: OVCAR-5 ovarian
NCI-H226 lung = test system: NCI-H226 lung
MDA-MB-231 breast = test system: MDA-MB-231 breast
CCRF-CEM leukemia = test system: CCRF-CEM leukemia
SN12C renal = test system: SN12C renal
ACHN renal = test system: ACHN renal
MDA-MB-468 breast = test system: MDA-MB-468 breast
SK-MEL-2 melanoma = test system: SK-MEL-2 melanoma
SR leukemia = test system: SR leukemia
UO-31 renal = test system: UO-31 renal
CAKI-1 renal = test system: CAKI-1 renal
HCT-116 colon = test system: HCT-116 colon
SK-MEL-28 melanoma = test system: SK-MEL-28 melanoma
NCI-H460 lung = test system: NCI-H460 lung
MALME-3M melanoma = test system: MALME-3M melanoma
SF-295 CNS = test system: SF-295 CNS
BT-549 breast = test system: BT-549 breast
SF-268 CNS = test system: SF-268 CNS
DU-145 prostate = test system: DU-145 prostate
MOLT-4 leukemia = test system: MOLT-4 leukemia
U251 CNS = test system: U251 CNS
SNB-19 CNS = test system: SNB-19 CNS
OVCAR-3 ovarian = test system: OVCAR-3 ovarian
HOP-62 NSCLC = test system: HOP-62 NSCLC
TK-10 renal = test system: TK-10 renal
UACC-62 melanoma = test system: UACC-62 melanoma
HT29 colon = test system: HT29 colon
OVCAR-4 ovarian = test system: OVCAR-4 ovarian
A549 NSCLC = test system: A549 NSCLC
LOX IMVI melanoma = test system: LOX IMVI melanoma
IGROV1 ovarian = test system: IGROV1 ovarian
T-47D breast = test system: T-47D breast
RPMI-8226 leukemia = test system: RPMI-8226 leukemia
HOP-92 NSCLC = test system: HOP-92 NSCLC
NCI-H23 lung = test system: NCI-H23 lung
K-562 leukemia = test system: K-562 leukemia
SK-OV-3 ovarian = test system: SK-OV-3 ovarian
NCI/ADR-RES ovarian = test system: NCI/ADR-RES ovarian
OVCAR-8 ovarian = test system: OVCAR-8 ovarian
KM12 colon = test system: KM12 colon
MDA-MB-435 = test system: MDA-MB-435
SW-620 colon = test system: SW-620 colon

COc1cc(/C=C/C(=O)c2ccc(C)cc2)ccc1Oc1nc(Nc2ccc(F)cc2)nc(N(C)C)n1
GI50 (HS 578T breast): 7.24 µM | TGI (HS 578T breast): 89.5 µM | GI50 (COLO 205 colon): 41.7 µM | TGI (COLO 205 colon): > 100 µM | GI50 (MCF7 breast): 3.57 µM | TGI (MCF7 breast): 20.2 µM | GI50 (A498 renal): 41.8 µM | TGI (A498 renal): > 100 µM | GI50 (SK-MEL-5 melanoma): 5.14 µM | TGI (SK-MEL-5 melanoma): 21.7 µM | GI50 (PC-3 prostate): 8.86 µM | TGI (PC-3 prostate): > 100 µM | GI50 (HCC-2998 colon): 20.5 µM | TGI (HCC-2998 colon): 73.4 µM | GI50 (M14 melanoma): 14.7 µM | TGI (M14 melanoma): 54.3 µM | GI50 (NCI-H522 lung): 9.76 µM | TGI (NCI-H522 lung): 53.2 µM | GI50 (EKVX NSCLC): 6.71 µM | TGI (EKVX NSCLC): > 100 µM | GI50 (HL-60(TB) leukemia): 19.1 µM | TGI (HL-60(TB) leukemia): > 100 µM | GI50 (SF-539 CNS): 7.64 µM | TGI (SF-539 CNS): 20.1 µM | GI50 (HCT-15 colon): 4.73 µM | TGI (HCT-15 colon): 16.8 µM | GI50 (UACC-257 melanoma): 8.76 µM | TGI (UACC-257 melanoma): > 100 µM | GI50 (SNB-75 CNS): 15.4 µM | TGI (SNB-75 CNS): > 100 µM | GI50 (786-0 renal): 13.3 µM | TGI (786-0 renal): 53.6 µM | GI50 (OVCAR-5 ovarian): 16.5 µM | TGI (OVCAR-5 ovarian): 68 µM | GI50 (NCI-H226 lung): 5.22 µM | TGI (NCI-H226 lung): 19.6 µM | GI50 (MDA-MB-231 breast): 5.24 µM | TGI (MDA-MB-231 breast): 18.7 µM | GI50 (CCRF-CEM leukemia): 3.92 µM | TGI (CCRF-CEM leukemia): > 100 µM | GI50 (SN12C renal): 3.89 µM | TGI (SN12C renal): 20.3 µM | GI50 (ACHN renal): 9.58 µM | TGI (ACHN renal): 30.7 µM | GI50 (MDA-MB-468 breast): 4.64 µM | TGI (MDA-MB-468 breast): 31.8 µM | GI50 (SK-MEL-2 melanoma): 8.83 µM | TGI (SK-MEL-2 melanoma): 67.4 µM | GI50 (SR leukemia): 3.25 µM | TGI (SR leukemia): 70.6 µM | GI50 (UO-31 renal): 4.2 µM | TGI (UO-31 renal): 44.1 µM | GI50 (CAKI-1 renal): 6.43 µM | TGI (CAKI-1 renal): > 100 µM | GI50 (HCT-116 colon): 2.28 µM | TGI (HCT-116 colon): 5.85 µM | GI50 (SK-MEL-28 melanoma): 12.3 µM | TGI (SK-MEL-28 melanoma): 31.3 µM | GI50 (NCI-H460 lung): 12.1 µM | TGI (NCI-H460 lung): 42.8 µM | GI50 (MALME-3M melanoma): 15.4 µM | TGI (MALME-3M melanoma): 33.3 µM | GI50 (SF-295 CNS): 8.61 µM | TGI (SF-295 CNS): 44.3 µM | GI50 (BT-549 breast): 6.27 µM | TGI (BT-549 breast): 26.8 µM | GI50 (SF-268 CNS): 13.9 µM | TGI (SF-268 CNS): > 100 µM | GI50 (DU-145 prostate): 25.8 µM | TGI (DU-145 prostate): > 100 µM | GI50 (MOLT-4 leukemia): 2.8 µM | TGI (MOLT-4 leukemia): 27.7 µM | GI50 (U251 CNS): 3.32 µM | TGI (U251 CNS): 28.8 µM | GI50 (SNB-19 CNS): 11.1 µM | TGI (SNB-19 CNS): 27.3 µM | GI50 (OVCAR-3 ovarian): 13 µM | TGI (OVCAR-3 ovarian): > 100 µM | GI50 (HOP-62 NSCLC): 32.2 µM | TGI (HOP-62 NSCLC): > 100 µM | GI50 (TK-10 renal): 18.2 µM | TGI (TK-10 renal): > 100 µM | GI50 (UACC-62 melanoma): 10.1 µM | TGI (UACC-62 melanoma): 42.8 µM | GI50 (HT29 colon): 8.15 µM | TGI (HT29 colon): 37.5 µM | GI50 (OVCAR-4 ovarian): 7.94 µM | TGI (OVCAR-4 ovarian): 74.5 µM | GI50 (A549 NSCLC): 45.8 µM | TGI (A549 NSCLC): > 100 µM | GI50 (LOX IMVI melanoma): 1.84 µM | TGI (LOX IMVI melanoma): 3.51 µM | GI50 (IGROV1 ovarian): 13.8 µM | TGI (IGROV1 ovarian): 36.9 µM | GI50 (T-47D breast): 3.57 µM | TGI (T-47D breast): > 100 µM | GI50 (RPMI-8226 leukemia): 3 µM | TGI (RPMI-8226 leukemia): > 100 µM | GI50 (HOP-92 NSCLC): 4.57 µM | TGI (HOP-92 NSCLC): 57.3 µM | GI50 (NCI-H23 lung): 5.52 µM | TGI (NCI-H23 lung): 27.7 µM | GI50 (K-562 leukemia): 4.2 µM | TGI (K-562 leukemia): > 100 µM | GI50 (SK-OV-3 ovarian): 48.9 µM | TGI (SK-OV-3 ovarian): > 100 µM | GI50 (NCI/ADR-RES ovarian): 5.97 µM | TGI (NCI/ADR-RES ovarian): 27.5 µM | GI50 (OVCAR-8 ovarian): 7.19 µM | TGI (OVCAR-8 ovarian): 82.2 µM | GI50 (KM12 colon): 19.3 µM | TGI (KM12 colon): > 100 µM | GI50 (MDA-MB-435): 11.4 µM | TGI (MDA-MB-435): 28.4 µM | GI50 (SW-620 colon): 2.36 µM | TGI (SW-620 colon): 5.75 µM
